Laboratory results published in ChEMBL document CHEMBL4680155, “One-pot synthesis and molecular docking of some new spiropyranindol-2-one derivatives as immunomodulatory agents and in vitro antimicrobial potential with DNA gyrase inhibitor” (Eur J Med Chem, 2020).
In brackets after ≈: the same amount, converted by molar mass. Activity calls are given as the source filed them. No cut-off for these calls is given here.

Columns and labels:
Candida albicans [1] = experiment: Antifungal activity against Candida albicans ATCC 10231 assessed as diameter of inhibition zone at 0.5 mg/ml incubated for 24 hrs by agar diffusion method; type: functional; details: for zone of inhibition at 500 µg/mL: read-out: DIZ
Aspergillus brasiliensis [2] = experiment: Antifungal activity against Aspergillus brasiliensis ATCC 16404 assessed as diameter of inhibition zone at 0.5 mg/ml incubated for 72 hrs by agar diffusion method; type: functional; details: for zone of inhibition at 500 µg/mL: read-out: DIZ
Staphylococcus aureus [3] = experiment: Antibacterial activity against Staphylococcus aureus ATCC 29213 assessed as diameter of inhibition zone at 0.5 mg/ml incubated for 24 hrs by agar diffusion method; type: functional; details: read-out: DIZ
Escherichia coli [4] = experiment: Antibacterial activity against Escherichia coli ATCC 25922 assessed as diameter of inhibition zone at 0.5 mg/ml incubated for 24 hrs by agar diffusion method; type: functional; details: read-out: DIZ
Salmonella typhimurium [5] = experiment: Antibacterial activity against Salmonella typhi ATCC 6539 assessed as reduction in bacterial growth incubated for 1 day by paper disk diffusion method; type: functional, Salmonella enterica subsp. enterica serovar Typhimurium; details: Salmonella enterica, ATCC 6539, 24 h
Aspergillus brasiliensis [6] = experiment: Antifungal activity against Aspergillus brasiliensis ATCC 16404 assessed as reduction in bacterial growth incubated for 3 days by paper disk diffusion method; type: functional
Enterococcus faecalis [7] = experiment: Antibacterial activity against Enterococcus faecalis ATCC 29212 assessed as diameter of inhibition zone at 0.5 mg/ml incubated for 24 hrs by agar diffusion method; type: functional; details: read-out: DIZ
Staphylococcus aureus [8] = experiment: Antibacterial activity against Staphylococcus aureus ATCC 29213 assessed as reduction in bacterial growth incubated for 1 day by paper disk diffusion method; type: functional; details: ATCC 29213, 24 h
Salmonella typhimurium [9] = experiment: Antibacterial activity against Salmonella typhi ATCC 6539 assessed as diameter of inhibition zone at 0.5 mg/ml incubated for 24 hrs by agar diffusion method; type: functional, Salmonella enterica subsp. enterica serovar Typhimurium; details: Salmonella enterica, read-out: DIZ
Escherichia coli [10] = experiment: Antibacterial activity against Escherichia coli ATCC 25922 assessed as reduction in bacterial growth incubated for 1 day by paper disk diffusion method; type: functional; details: ATCC 25922, 24 h
Enterococcus faecalis [11] = experiment: Antibacterial activity against Enterococcus faecalis ATCC 29212 assessed as reduction in bacterial growth incubated for 1 day by paper disk diffusion method; type: functional; details: ATCC 29212, 24 h
Candida albicans [12] = experiment: Antifungal activity against Candida albicans ATCC 10231 assessed as reduction in bacterial growth incubated for 1 day by paper disk diffusion method; type: functional
Salmonella typhimurium [13] = experiment: Bactericidal activity against Salmonella typhi ATCC 6539 incubated for 24 hrs followed by transferring to freshly prepared broth medium and measured after 24 hrs by broth microdilution assay; type: functional, Salmonella enterica subsp. enterica serovar […]; details: Salmonella enterica, time 48 hrs
Enterococcus faecalis [14] = experiment: Bactericidal activity against Enterococcus faecalis ATCC 29212 incubated for 24 hrs followed by transferring to freshly prepared broth medium and measured after 24 hrs by broth microdilution assay; type: functional; details: time 48 hrs
Staphylococcus aureus [15] = experiment: Bactericidal activity against Staphylococcus aureus ATCC 29213 incubated for 24 hrs followed by transferring to freshly prepared broth medium and measured after 24 hrs by broth microdilution assay; type: functional; details: time 48 hrs
Escherichia coli [16] = experiment: Bactericidal activity against Escherichia coli ATCC 25922 incubated for 24 hrs followed by transferring to freshly prepared broth medium and measured after 24 hrs by broth microdilution assay; type: functional; details: time 48 hrs

## CCOC(=O)/C(C#N)=C1\C(=O)Nc2ccc(S(=O)(=O)N3CCCCC3)cc21
Candida albicans [1]
  zone of inhibition at 500 µg/mL: 16 mm
Aspergillus brasiliensis [2]
  zone of inhibition at 500 µg/mL: 15 mm
Staphylococcus aureus [3]
  zone of inhibition at 500 µg/mL: 7 mm
Escherichia coli [4]
  zone of inhibition at 500 µg/mL: 14 mm
Salmonella typhimurium [5]
  MIC: 125 µg/mL (≈ 321 µM)
Aspergillus brasiliensis [6]; ATCC 16404, 72 h, time 3 day
  MIC: 88.3 µg/mL (≈ 227 µM)
Enterococcus faecalis [7]
  zone of inhibition at 500 µg/mL: 15 mm
Staphylococcus aureus [8]
  MIC: 167 µg/mL (≈ 428 µM)
Salmonella typhimurium [9]
  zone of inhibition at 500 µg/mL: 11 mm
Escherichia coli [10]
  MIC: 62.5 µg/mL (≈ 160 µM)
Enterococcus faecalis [11]
  MIC: 133 µg/mL (≈ 342 µM)
Candida albicans [12]; ATCC 10231, 24 h
  MIC: 125 µg/mL (≈ 321 µM)

## CCOC(=O)C1=C(C)OC(N)=C(C(=O)OCC)C12C(=O)Nc1ccc(S(=O)(=O)N3CCOCC3)cc12 (stereo not drawn)
Candida albicans [1]
  zone of inhibition at 500 µg/mL: 13 mm
Aspergillus brasiliensis [2]
  zone of inhibition at 500 µg/mL: 11 mm
Staphylococcus aureus [3]
  zone of inhibition at 500 µg/mL: 14 mm
Escherichia coli [4]
  zone of inhibition at 500 µg/mL: 18 mm
Salmonella typhimurium [5]
  MIC: 142 µg/mL (≈ 273 µM)
Aspergillus brasiliensis [6]; ATCC 16404, 72 h, time 3 day
  MIC: 133 µg/mL (≈ 256 µM)
Enterococcus faecalis [7]
  zone of inhibition at 500 µg/mL: 16 mm
Staphylococcus aureus [8]
  MIC: 125 µg/mL (≈ 240 µM)
Salmonella typhimurium [9]
  zone of inhibition at 500 µg/mL: 10 mm
Escherichia coli [10]
  MIC: 31.2 µg/mL (≈ 59.9 µM)
Enterococcus faecalis [11]
  MIC: 62.5 µg/mL (≈ 120 µM)
Candida albicans [12]; ATCC 10231, 24 h
  MIC: 125 µg/mL (≈ 240 µM)

## CCOC(=O)C1=C(C)OC(N)=C(C#N)C12C(=O)Nc1ccc(S(=O)(=O)N3CCOCC3)cc12 (stereo not drawn)
Candida albicans [1]
  zone of inhibition at 500 µg/mL: 18 mm
Aspergillus brasiliensis [2]
  zone of inhibition at 500 µg/mL: 10 mm
Staphylococcus aureus [3]
  zone of inhibition at 500 µg/mL: 16 mm
Escherichia coli [4]
  zone of inhibition at 500 µg/mL: 19 mm
Salmonella typhimurium [5]
  MIC: 133 µg/mL (≈ 281 µM)
Aspergillus brasiliensis [6]; ATCC 16404, 72 h, time 3 day
  MIC: 167 µg/mL (≈ 351 µM)
Enterococcus faecalis [7]
  zone of inhibition at 500 µg/mL: 14 mm
Staphylococcus aureus [8]
  MIC: 133 µg/mL (≈ 281 µM)
Salmonella typhimurium [9]
  zone of inhibition at 500 µg/mL: 15 mm
Escherichia coli [10]
  MIC: 31.2 µg/mL (≈ 65.9 µM)
Enterococcus faecalis [11]
  MIC: 88.3 µg/mL (≈ 186 µM)
Candida albicans [12]; ATCC 10231, 24 h
  MIC: 88.3 µg/mL (≈ 186 µM)

## CN(C)[C@@H]1C(O)=C(C(N)=O)C(=O)[C@@]2(O)C(O)=C3C(=O)c4c(O)cccc4[C@@](C)(O)[C@H]3C[C@@H]12 [TETRACYCLINE]
Candida albicans [1]
  diameter of the inhibition zone (DIZ): inactive
Aspergillus brasiliensis [2]
  diameter of the inhibition zone (DIZ): inactive
Staphylococcus aureus [3]
  zone of inhibition at 500 µg/mL: 25 mm
Escherichia coli [4]
  zone of inhibition at 500 µg/mL: 23 mm
Salmonella typhimurium [5]
  MIC: 62.5 µg/mL (≈ 141 µM)
Salmonella typhimurium [13]
  MBC: 81.2 µg/mL (≈ 183 µM)
Aspergillus brasiliensis [6]; time 3.0 day
  MIC: inactive
Enterococcus faecalis [7]
  zone of inhibition at 500 µg/mL: 22 mm
Staphylococcus aureus [8]
  MIC: 62.5 µg/mL (≈ 141 µM)
Salmonella typhimurium [9]
  zone of inhibition at 500 µg/mL: 21 mm
Enterococcus faecalis [14]
  MBC: 37.5 µg/mL (≈ 84.4 µM)
Staphylococcus aureus [15]
  MBC: 87.5 µg/mL (≈ 197 µM)
Escherichia coli [10]
  MIC: 15.6 µg/mL (≈ 35.1 µM)
Enterococcus faecalis [11]
  MIC: 62.5 µg/mL (≈ 141 µM)
Candida albicans [12]
  MIC: inactive
Escherichia coli [16]
  MBC: 18.7 µg/mL (≈ 42.2 µM)

## N#CC(C#N)=C1C(=O)Nc2ccc(S(=O)(=O)N3CCCCC3)cc21
Candida albicans [1]
  zone of inhibition at 500 µg/mL: 16 mm
Aspergillus brasiliensis [2]
  zone of inhibition at 500 µg/mL: 16 mm
Staphylococcus aureus [3]
  zone of inhibition at 500 µg/mL: 10 mm
Escherichia coli [4]
  zone of inhibition at 500 µg/mL: 13 mm
Salmonella typhimurium [5]
  MIC: 143 µg/mL (≈ 417 µM)
Aspergillus brasiliensis [6]; ATCC 16404, 72 h, time 3 day
  MIC: 62.5 µg/mL (≈ 183 µM)
Enterococcus faecalis [7]
  zone of inhibition at 500 µg/mL: 17 mm
Staphylococcus aureus [8]
  MIC: 133 µg/mL (≈ 389 µM)
Salmonella typhimurium [9]
  zone of inhibition at 500 µg/mL: 12 mm
Escherichia coli [10]
  MIC: 125 µg/mL (≈ 365 µM)
Enterococcus faecalis [11]
  MIC: 62.5 µg/mL (≈ 183 µM)
Candida albicans [12]; ATCC 10231, 24 h
  MIC: 125 µg/mL (≈ 365 µM)

## CC(=O)C1=C(C)OC(N)=C(C#N)C12C(=O)Nc1ccc(S(=O)(=O)N3CCCCC3)cc12 (stereo not drawn)
Candida albicans [1]
  zone of inhibition at 500 µg/mL: 16 mm
Aspergillus brasiliensis [2]
  zone of inhibition at 500 µg/mL: 14 mm
Staphylococcus aureus [3]
  zone of inhibition at 500 µg/mL: 8 mm
Escherichia coli [4]
  zone of inhibition at 500 µg/mL: 15 mm
Salmonella typhimurium [5]
  MIC: 88.8 µg/mL (≈ 201 µM)
Aspergillus brasiliensis [6]; ATCC 16404, 72 h, time 3 day
  MIC: 125 µg/mL (≈ 282 µM)
Enterococcus faecalis [7]
  zone of inhibition at 500 µg/mL: 15 mm
Staphylococcus aureus [8]
  MIC: 167 µg/mL (≈ 376 µM)
Salmonella typhimurium [9]
  zone of inhibition at 500 µg/mL: 15 mm
Escherichia coli [10]
  MIC: 62.5 µg/mL (≈ 141 µM)
Enterococcus faecalis [11]
  MIC: 167 µg/mL (≈ 376 µM)
Candida albicans [12]; ATCC 10231, 24 h
  MIC: 71.1 µg/mL (≈ 161 µM)

## CCOC(=O)C1=C(C)OC(N)=C(C(=O)OCC)C12C(=O)Nc1ccc(S(=O)(=O)N3CCCCC3)cc12 (stereo not drawn)
Candida albicans [1]
  zone of inhibition at 500 µg/mL: 12 mm
Aspergillus brasiliensis [2]
  zone of inhibition at 500 µg/mL: 12 mm
Staphylococcus aureus [3]
  zone of inhibition at 500 µg/mL: 13 mm
Escherichia coli [4]
  zone of inhibition at 500 µg/mL: 12 mm
Salmonella typhimurium [5]
  MIC: 88.3 µg/mL (≈ 170 µM)
Aspergillus brasiliensis [6]; ATCC 16404, 72 h, time 3 day
  MIC: 133 µg/mL (≈ 257 µM)
Enterococcus faecalis [7]
  zone of inhibition at 500 µg/mL: 19 mm
Staphylococcus aureus [8]
  MIC: 88.3 µg/mL (≈ 170 µM)
Salmonella typhimurium [9]
  zone of inhibition at 500 µg/mL: 13 mm
Escherichia coli [10]
  MIC: 71.1 µg/mL (≈ 137 µM)
Enterococcus faecalis [11]
  MIC: 35.5 µg/mL (≈ 68.4 µM)
Candida albicans [12]; ATCC 10231, 24 h
  MIC: 88.3 µg/mL (≈ 170 µM)
